The test system of this assay is urease enzyme of ur(+) S. thermophilus. The experiment in a line: Floating curd experiment in test tubes (Example 3). Set-up: species or system Streptococcus thermophilus. Particulars: milk fermented at 35° C. to pH 4.65, sample heated at about 66° C. for 2 x 10 minutes; flurofamide added to the blend of Lactococci and ur(+) S. thermophilus. On the procedure: Four experiments were conducted in which milk was treated with various bacteria. In experiment 1, only Lactococci bacteria were added. In experiment 2, a blend of Lactococci bacteria and ur(+) S. thermophilus bacteria were added. In experiment 3, a blend of Lactococci bacteria, ur(+) S. thermophilus bacteria, and the urease inhibitor flurofamide were added. In experiment 4, only ur(+) S. thermophilus bacteria were added.
In each experiment, the milk was fermented with the bacteria at 35° C. until the cheese reached a pH of 4.65. A sample of the cheese was placed into a test tube, which was heated at about 66° C. for about 10 minutes. After 10 minutes of heating, a small pipette or thin wire was used to agitate the sample. The samples were held at about 66° C. for another ten minutes, at which time the photograph of the test tubes depicted in FIG. 3, was taken.
Test tube 4 is a positive control that contains ur(+) S. thermophilus, which has urease enzymes that can hydrolyze urea in milk.

SMILES strings stand for the structures.

With `NP(N)(=O)NC(=O)c1ccc(F)cc1` [flurofamide], the “floating curd in test tube” value is “no floating curd”.

The values above are taken from patent publication US20140154389A1, “PRODUCTION OF CHEESE WITH S. THERMOPHILUS” (DuPont Nutrition BioSciences ApS, priority 2011, published 2014).
